In ChEMBL document CHEMBL4673263, “Evaluation of PNU-159682 antibody drug conjugates (ADCs)” (Bioorg Med Chem Lett, 2020):

What was measured:
MES-SA = assay: Cytotoxicity against human MES-SA cells assessed as reduction in cell viability; type: functional, cell-based
MES-SA/Dx5 = assay: Cytotoxicity against human MES SA/DX5 cells assessed as reduction in cell viability; type: functional, cell-based
HEK-293T = assay: Cytotoxicity against HEK293T cells assessed as reduction in cell viability; type: cell-based; conditions: Homo sapiens
[1] = Stability of the compound in rat plasma incubated for 7 days; type: ADME, cell-free; conditions: 168 h, time 7 day
[2] = Stability of compound in mouse plasma incubated for 7 days; type: ADME, cell-free; conditions: 168 h, time 7 day

For `COc1cccc2c1C(=O)c1c(O)c3c(c(O)c1C2=O)C[C@@](O)(c1csc(N(C)C)n1)C[C@@H]3O[C@H]1C[C@H]2[C@H](O[C@@H]3[C@@H](OC)OCCN32)[C@H](C)O1`, the EC50 (MES-SA) was 0.07 nM, the EC50 (MES-SA/Dx5) was 0.113 nM and the EC50 (HEK-293T) was 0.065 nM.

For `COc1cccc2c1C(=O)c1c(O)c3c(c(O)c1C2=O)C[C@@](O)(c1csc(N(C)C(=O)[C@H](C)NC(=O)[C@@H](NC(=O)CN2C(=O)C=CC2=O)C(C)C)n1)C[C@@H]3O[C@H]1C[C@H]2[C@H](OC3[C@@H](OC)OCCN32)[C@H](C)O1` (stereo partly specified), the Stabilty [1] was “Stable” and the Stabilty [2] was “Stable”.

For `COc1cccc2c1C(=O)c1c(O)c3c(c(O)c1C2=O)C[C@@](O)(C(=O)CO)C[C@@H]3O[C@H]1C[C@H]2[C@H](O[C@@H]3[C@@H](OC)OCCN32)[C@H](C)O1`, the EC50 (MES-SA) was 0.0002 nM, the EC50 (MES-SA/Dx5) was 0.00038 nM and the EC50 (HEK-293T) was 0.00037 nM.

For `COc1cccc2c1C(=O)c1c(O)c3c(c(O)c1C2=O)C[C@@](O)(c1nnc(C)[nH]1)C[C@@H]3O[C@H]1C[C@H]2[C@H](O[C@@H]3[C@@H](OC)OCCN32)[C@H](C)O1`, the EC50 (MES-SA) was 0.034 nM, the EC50 (MES-SA/Dx5) was > 15 nM and the EC50 (HEK-293T) was 0.033 nM.

Work on `CNc1nc([C@]2(O)Cc3c(O)c4c(c(O)c3[C@@H](O[C@H]3C[C@H]5[C@H](O[C@@H]6[C@@H](OC)OCCN65)[C@H](C)O3)C2)C(=O)c2c(OC)cccc2C4=O)cs1` yielded an EC50 (MES-SA) of 0.047 nM, an EC50 (MES-SA/Dx5) of 0.125 nM and an EC50 (HEK-293T) of 0.052 nM.

With `COc1cccc2c1C(=O)c1c(O)c3c(c(O)c1C2=O)C[C@@](O)(c1cnc(C)[nH]1)C[C@@H]3O[C@H]1C[C@H]2[C@H](O[C@@H]3[C@@H](OC)OCCN32)[C@H](C)O1` the EC50 (MES-SA) was 0.0017 nM, the EC50 (MES-SA/Dx5) was > 0.3 nM and the EC50 (HEK-293T) was 0.024 nM.

For `COc1cccc2c1C(=O)c1c(O)c3c(c(O)c1C2=O)C[C@@](O)(c1csc(N)n1)C[C@@H]3O[C@H]1C[C@H]2[C@H](O[C@@H]3[C@@H](OC)OCCN32)[C@H](C)O1`, the EC50 (MES-SA) was 0.046 nM, the EC50 (MES-SA/Dx5) was 0.139 nM and the EC50 (HEK-293T) was 0.051 nM.

For `COc1cccc2c1C(=O)c1c(O)c3c(c(O)c1C2=O)C[C@@](O)(c1csc(C)n1)C[C@@H]3O[C@H]1C[C@H]2[C@H](O[C@@H]3[C@@H](OC)OCCN32)[C@H](C)O1`, the EC50 (MES-SA) was 0.0116 nM, the EC50 (MES-SA/Dx5) was 0.0101 nM and the EC50 (HEK-293T) was 0.012 nM.

`COc1cccc2c1C(=O)c1c(O)c3c(c(O)c1C2=O)C[C@@]1(C[C@@H]3O[C@H]2C[C@H]3[C@H](O[C@@H]4[C@@H](OC)OCCN43)[C@H](C)O2)OC(=O)OCC1=O` gave an EC50 (MES-SA) of 0.0005 nM, an EC50 (MES-SA/Dx5) of 0.0009 nM and an EC50 (HEK-293T) of 0.00069 nM.
